Experimental data reported in US9186402B2 (Colorado State University Research Foundation, priority 2008, dated 2015).
Like-named read-outs stand apart in the source and are kept apart here. Blank lines part the entries; values can stand above or below the compound they belong to.

What was measured:
[1] = amide bond, HATU, CH3CN
[2] = molecular target: HDAC1 (Homo sapiens, UniProt Q13547); assay: HDAC biochemical assay (IC50), 384-well homogeneous; conditions: reducing conditions (TCEP 200 μM); read-out: Biochemical inhibition of human HDACs (IC50) HDAC1
Procedure: (§1) The inhibitory effect of compounds on deacetylase isoenzyme function was determined in vitro using an optimized homogenous assay performed in 384-well plate format. […] Data are analyzed on a plate-by-plate basis for the linear range of fluorescence over time. Data from the plate capture corresponding to the mid-linear range is imported into analytical software and annotated with well identity and compound concentration (Spotfire DecisionSite). Replicate experimental data from incubations with inhibitor are normalized to control, solvent-only wells and IC-50 is deteremined by logistic regression.
(§2) A liquid handling device then transferred a tripeptide substrate terminating in acetyl-lysine and amide conjugated to 4-methyl-7-aminocoumarin (AMC), recombinant human histone deacetylase (BPS Bioscience, San Diego, Calif.), and recombinant human trypsin (Sigma-Aldrich, St. Louis, Mo.). Following deacetylase hydrolysis of acetyl-lysine, trypsin cleavage liberated the AMC fluorophore. Kinetic (fluorescence per unit time) and end-point (total fluorescence) data were captured by a multilabel plate reader. Replicate data were analyzed by curve-fit using logistic regression (Snotfire Decision—Site).

[3] = molecular target: T1, HDAC6 (Homo sapiens, UniProt Q9UBN7); assay: as above; conditions: read-out: Biochemical inhibition of human HDACs (IC50) HDAC6
T1 sequence (Q9UBN7 1-1215): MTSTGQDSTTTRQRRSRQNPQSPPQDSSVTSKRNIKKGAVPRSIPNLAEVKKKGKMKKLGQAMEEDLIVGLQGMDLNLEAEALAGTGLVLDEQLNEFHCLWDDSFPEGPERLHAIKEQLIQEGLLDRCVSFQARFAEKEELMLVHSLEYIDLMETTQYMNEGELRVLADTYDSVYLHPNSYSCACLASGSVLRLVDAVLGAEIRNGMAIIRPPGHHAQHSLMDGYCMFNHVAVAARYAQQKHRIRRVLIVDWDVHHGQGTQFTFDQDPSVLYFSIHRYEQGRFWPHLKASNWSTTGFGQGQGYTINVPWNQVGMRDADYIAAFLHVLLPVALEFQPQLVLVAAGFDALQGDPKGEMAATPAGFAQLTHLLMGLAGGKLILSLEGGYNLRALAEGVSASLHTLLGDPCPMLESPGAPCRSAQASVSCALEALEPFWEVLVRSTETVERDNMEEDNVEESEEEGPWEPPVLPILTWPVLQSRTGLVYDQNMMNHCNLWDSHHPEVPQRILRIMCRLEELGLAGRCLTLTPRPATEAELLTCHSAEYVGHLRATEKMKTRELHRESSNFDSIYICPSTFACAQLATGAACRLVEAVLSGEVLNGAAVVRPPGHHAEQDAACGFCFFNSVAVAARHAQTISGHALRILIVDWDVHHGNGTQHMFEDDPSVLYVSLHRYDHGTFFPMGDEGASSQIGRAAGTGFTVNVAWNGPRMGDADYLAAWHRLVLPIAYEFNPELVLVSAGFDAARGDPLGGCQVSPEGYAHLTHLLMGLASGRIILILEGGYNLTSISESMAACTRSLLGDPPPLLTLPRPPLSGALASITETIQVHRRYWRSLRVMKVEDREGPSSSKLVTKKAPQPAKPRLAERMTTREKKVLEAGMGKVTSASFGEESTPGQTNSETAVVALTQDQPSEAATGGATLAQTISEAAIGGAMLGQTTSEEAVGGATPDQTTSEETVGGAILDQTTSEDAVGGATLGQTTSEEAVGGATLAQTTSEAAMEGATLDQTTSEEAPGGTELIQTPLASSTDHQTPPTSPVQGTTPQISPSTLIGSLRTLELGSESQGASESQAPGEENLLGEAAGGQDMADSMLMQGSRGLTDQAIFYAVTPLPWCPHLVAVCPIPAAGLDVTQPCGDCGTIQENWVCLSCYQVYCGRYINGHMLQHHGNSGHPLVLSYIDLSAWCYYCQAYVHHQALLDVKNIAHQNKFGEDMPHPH
Procedure: as §1, §2

[4] = molecular target: T2, HDAC2 (Homo sapiens, UniProt Q92769); assay: as above; conditions: reducing conditions (TCEP 200 μM); read-out: Biochemical inhibition of human HDACs (IC50) HDAC2
Procedure: as §1, §2

[5] = molecular target: HDAC3/NCor2 (Homo sapiens, UniProt O15379); assay: as above; conditions: read-out: Biochemical inhibition of human HDACs (IC50) HDAC3
Procedure: as §1, §2

[6] = test system: HDACs 1, 2 and 3; assay: HDAC biochemical assay, summary statements on Class I HDACs; parameters: species or system human
[7] = molecular target: T2, HDAC2; assay: HDAC2 inhibition, trypsin-coupled kinetic fluorescence homogeneous assay; type: biochemical
Procedure: To measure the inhibitory effect on deacetylase function in vitro, a continuous kinetic biochemical assay miniaturized to 384-well plate format was optimized.
Fluorescence measurements were obtained in real-time on a Varioskan microtiter plate reader (Thermo). Triplicate experimental data from incubations with inhibitor were normalized to solvent-only wells and analyzed by logistic regression (Spotfire DecisionSite).
A biochemical study of HDAC2 inhibition was carried out using the trypsin-coupled, kinetic fluorescence homogeneous assay described above.

[8] = test system: human malignant melanoma cell lines; assay: cell viability by ATP content (Cell TiterGlo), melanoma panel; type: cell-based; conditions: range over panel of human malignant melanoma cell lines, read-out: IC50 melanoma cell proliferation / viability
[9] = reducing conditions (TCEP 200 μM)
[10] = HDAC2, logistic fit of scatter plots, Conc (uM), read-out: X50 (curve fit, activity versus concentration)

T2 sequence (Q92769 whole entry): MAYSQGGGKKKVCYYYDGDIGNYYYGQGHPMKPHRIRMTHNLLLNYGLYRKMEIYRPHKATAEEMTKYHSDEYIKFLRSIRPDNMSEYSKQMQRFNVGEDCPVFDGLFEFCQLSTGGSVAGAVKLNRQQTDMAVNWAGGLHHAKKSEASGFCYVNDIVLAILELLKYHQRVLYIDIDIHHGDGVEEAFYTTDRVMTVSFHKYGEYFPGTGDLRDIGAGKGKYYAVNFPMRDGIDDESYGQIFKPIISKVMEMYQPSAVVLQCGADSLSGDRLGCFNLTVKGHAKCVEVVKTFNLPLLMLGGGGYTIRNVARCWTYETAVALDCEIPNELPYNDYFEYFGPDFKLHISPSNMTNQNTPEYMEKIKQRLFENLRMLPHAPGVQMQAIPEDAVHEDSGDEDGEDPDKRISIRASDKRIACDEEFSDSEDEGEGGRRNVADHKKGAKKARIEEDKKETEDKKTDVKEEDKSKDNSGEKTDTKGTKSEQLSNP
Chain of HDAC1 (Q13547 whole entry): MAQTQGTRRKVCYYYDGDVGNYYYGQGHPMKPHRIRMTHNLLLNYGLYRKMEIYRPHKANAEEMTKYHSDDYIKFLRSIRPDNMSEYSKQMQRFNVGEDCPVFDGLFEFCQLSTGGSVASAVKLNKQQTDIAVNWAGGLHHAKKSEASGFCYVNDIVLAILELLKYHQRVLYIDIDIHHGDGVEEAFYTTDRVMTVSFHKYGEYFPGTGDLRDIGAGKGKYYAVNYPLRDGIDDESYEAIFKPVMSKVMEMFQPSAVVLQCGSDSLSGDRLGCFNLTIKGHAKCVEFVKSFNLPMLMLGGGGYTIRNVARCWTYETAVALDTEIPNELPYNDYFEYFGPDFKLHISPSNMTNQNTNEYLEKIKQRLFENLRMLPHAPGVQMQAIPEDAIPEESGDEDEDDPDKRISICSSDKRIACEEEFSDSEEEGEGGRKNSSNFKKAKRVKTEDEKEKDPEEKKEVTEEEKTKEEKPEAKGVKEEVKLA
Chain of HDAC3/NCor2 (O15379 whole entry): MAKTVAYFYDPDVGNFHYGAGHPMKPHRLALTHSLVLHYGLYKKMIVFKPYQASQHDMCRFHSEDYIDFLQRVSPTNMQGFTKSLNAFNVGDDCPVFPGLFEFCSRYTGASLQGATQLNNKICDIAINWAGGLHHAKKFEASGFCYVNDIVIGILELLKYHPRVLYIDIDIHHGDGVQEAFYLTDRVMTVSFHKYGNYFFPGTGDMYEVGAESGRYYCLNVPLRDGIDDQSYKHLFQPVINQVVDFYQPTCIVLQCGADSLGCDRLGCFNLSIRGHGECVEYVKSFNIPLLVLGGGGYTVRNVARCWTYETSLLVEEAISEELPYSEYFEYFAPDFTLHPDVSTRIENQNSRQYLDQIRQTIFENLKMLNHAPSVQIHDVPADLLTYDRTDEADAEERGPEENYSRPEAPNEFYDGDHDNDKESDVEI
Chain of HDAC3/NCor2 (Q9Y618 395-489 partner limits assumed): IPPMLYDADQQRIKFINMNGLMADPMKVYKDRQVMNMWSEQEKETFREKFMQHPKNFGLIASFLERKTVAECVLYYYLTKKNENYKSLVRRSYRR

Structure (SMILES): C[C@@]12CSC(=N1)c1csc(n1)CNC(=O)C[C@@H](/C=C/CCSC(c1ccccc1)(c1ccccc1)c1ccccc1)OC(=O)[C@@H]1CCCN1C2=O
ring closure, yield of all isomers ([1]; from CC(C)(C)OC(=O)NCc1nc(C2=N[C@](C)(C(=O)N3CCC[C@H]3C(=O)O[C@H](/C=C/CCSC(c3ccccc3)(c3ccccc3)c3ccccc3)CC(=O)OCC[Si](C)(C)C)CS2)cs1, 0.83 mM, […], 2 steps): 43%

Structure (SMILES): CCCCCCCC(=O)SCC/C=C/[C@@H]1CC(=O)NCc2nc(cs2)C2=N[C@@](C)(CS2)C(=O)N[C@@H](C(C)C)C(=O)O1 [largazole (1), largazole, reference compound]
IC50 [7]: 7.14 µM
IC50 [8]: 45 to 315 nM

Structure (SMILES): CC(C)[C@H]1NC(=O)[C@@]2(C)CSC(=N2)c2csc(n2)CNC(=O)C[C@H](/C=C/CCSC(c2ccccc2)(c2ccccc2)c2ccccc2)OC1=O
ring closure, yield of all isomers ([1]; from CC(C)[C@@H](NC(=O)[C@@]1(C)CSC(c2csc(CNC(=O)OC(C)(C)C)n2)=N1)C(=O)O[C@@H](/C=C/CCSC(c1ccccc1)(c1ccccc1)c1ccccc1)CC(=O)OCC[Si](C)(C)C, 2 steps): 87%

Structure (SMILES): CCCCCCCC(=O)SCC/C=C/[C@@H]1CC(=O)NCc2nc(cs2)C2=N[C@@](C)(CS2)C(=O)N[C@@H](C(C)C)C(=O)N1 [ab6_1236 acyl amide]
X50 (curve fit, activity versus concentration) ([7]; HDAC2, logistic fit of scatter plots, Conc (uM)): X50 = 1.677E12 uM

Structure (SMILES): CC(C)[C@@H]1NC(=O)[C@]2(C)CSC(=N2)c2csc(n2)CNC(=O)C[C@@H](/C=C/CCSC(c2ccccc2)(c2ccccc2)c2ccccc2)NC1=O
ring closure, yield of all isomers ([1]; from COC(=O)C[C@@H](/C=C/CCSC(c1ccccc1)(c1ccccc1)c1ccccc1)NC(=O)[C@@H](NC(=O)[C@]1(C)CSC(c2csc(CNC(=O)OC(C)(C)C)n2)=N1)C(C)C, 0.94 mM, […], 3 steps): 50%

Structure (SMILES): C[C@@]12CSC(=N1)c1csc(n1)CNC(=O)C[C@@H](/C=C/CCS)OC(=O)[C@@H]1CCCN1C2=O [Proline substitution (4)]
IC50 [2]: 110 nM
IC50 [3]: 13000 nM
X50 (curve fit, activity versus concentration) [7]: X50 = 0.7733 uM
IC50 [4]: 800 nM
IC50 [5]: 580 nM

Structure (SMILES): CCCCCCCC(=O)SCC/C=C/[C@@H]1CC(=O)NCc2nc(cs2)C2=N[C@@](C)(CS2)C(=O)N2CCC[C@H]2C(=O)O1 [ab6_161b Proline acyl]
IC50 [7, 10]: 708 µM

The next lines start with results.

IC50 [2]: 1.9 nM
IC50 [3, 9]: 130 nM
IC50 [4]: 4.8 nM
IC50 [5, 9]: 3.8 nM
Structure (SMILES): CC(C)C1NC(=O)C2CSC(=N2)c2csc(n2)CNC(=O)CC(C=CCCS)OC1=O (stereo not shown) [Cysteine substitution 22b]

IC50 [3, 9]: 29 nM
IC50 [5, 9]: 1.1 nM
Structure (SMILES): CC(C)C1NC(=O)C2(C)CSC(=N2)c2cccc(n2)CNC(=O)CC(C=CCCS)OC1=O (stereo not shown) [Thiazole-pyridine substitution (29b)]
activity against Class I HDACs [6]: sub-nanomolar

IC50 [2]: > 30000 nM
IC50 [3, 9]: > 30000 nM
IC50 [4]: > 30000 nM
IC50 [5, 9]: > 30000 nM
Structure (SMILES): CC(C)[C@@H]1NC(=O)[C@]2(C)CSC(=N2)c2csc(n2)CNC(=O)C[C@@H](C/C=C\CCC(=O)O)OC1=O [Largazole-Azumamide hybrid (9b)]

IC50 [4]: 120 nM
Structure (SMILES): CC(C)[C@@H]1NC(=O)c2csc(n2)-c2csc(n2)CNC(=O)C[C@@H](/C=C/CCS)OC1=O [Thiazole-thiazole (23b)]

IC50 [7, 10]: 2.69 µM
Structure (SMILES): CCCCCCCC(=O)SCCCCC=CC1CC(=O)NCc2nc(cs2)C2=NC(C)(CS2)C(=O)NC(C(C)C)C(=O)O1 (stereo not shown) [ab6_162b]
